How the values were obtained:
[1] = Accelerated autoxidation of lipids by air (Rancimat apparatus), antioxidative index; assay type: physicochemical; settings: AOI=IP(with test solution)/IP(control sample); squalene purified over alumina, stabilized with 1 ppm α-tocopherol; dry air 20 l/h
Experimental: The activity of the exemplary compounds as in examples 1 to 3 as antioxidants was compared with that of conventional antioxidants. The test system used was the accelerated autoxidation of lipids by air with or without antioxidant using the Rancimat apparatus (Rancimat is a registered trademark of Metrohm AG, Herisau, Switzerland).
The exemplary compounds, vitamin C, α-tocopherol and dibutylhydroxytoluene were dissolved in methanol or acetone, and 100 μl of each test solution were added to a 3 g preprepared oil sample. In a control sample, only solvent was added. A constant stream of dry air (20 l/h) was bubbled through the heated oil sample which contained the test solution, and the volatile oxidation products (predominantly short-chain fatty acids such as formic acid or acetic acid) were collected in a receiver containing water. The conductivity of this aqueous solution was continuously measured and documented. The oxidation of (unsaturated) fats proceeds only very slowly for some time and then suddenly increases. The time to the increase is referred to as the induction period (IP).
The following equation was used to calculate the antioxidative index (AOI):
AOI=IP(with test solution)/IP(control sample).
The results for the experiment at […] in squalene that has been purified over alumina grade N and stabilized with 1 ppm of α-tocopherol are given in table 2: […]

[2] = DPPH (1,1-diphenyl-2-picrylhydrazyl) test for the removal of free radicals; assay type: physicochemical; settings: c(test compound)/c(DPPH); DPPH 100 μmol/l in methanol; absorption at 515 nm
Experimental: The activity of the exemplary compounds as in examples 1 to 3 as free-radical scavengers was compared with that of conventional free-radical scavengers. For this purpose, the DPPH (1,1-diphenyl-2-picrylhydrazyl) test for the removal of free radicals was used.
DPPH was dissolved in methanol to a concentration of 100 μmol/l. A series of dilutions of the exemplary compounds, vitamin C, α-tocopherol and dibutylhydroxytoluene were prepared in methanol. Methanol served as the control. 2500 μl of the DPPH solution were mixed with 500 μl of each test solution and the decrease in absorption at 515 nm was read until the decrease was less than 2% per hour. The activity of the test substances as free-radical scavengers was calculated according to the following equation:
Activity as free-radical scavenger (%)=100−(absorption of the test compounds)/(absorption of the control)×100.
The activity as free-radical scavenger (%) in a series of dilutions of test compounds was used to calculate, for each test compound, the effective relative concentration EC50 (based on the starting concentration of DPPH, EC=c (test compound)/c(DPPH)) of a test compound at which 50% of the free radical DPPH had been removed.

Structure (SMILES)	AOI in squalene at 80° C. with 0.005% of test substance [1]	EC50 (effective relative concentration at which 50% of the free radical DPPH had been removed) [2] [mol/mol]
Cc1c(C)c2c(c(C)c1O)CC[C@@](C)(CCC[C@H](C)CCC[C@H](C)CCCC(C)C)O2 [α-Tocopherol]	39	0.25
O=C(NC1CCCCC1)C(O)c1ccc(O)c(O)c1 (stereo not drawn) [Example 2, N-Cyclohexyl-2-(3,4-dihydroxyphenyl)-2-hydroxyacetamide]	43	0.11
CCCCCCNC(=O)C(O)c1ccc(O)c(O)c1 (stereo not drawn) [Example 3, 2-(3,4-Dihydroxyphenyl)-N-n-hexyl-2-hydroxyacetamide]	55	0.12
Cc1cc(C(C)(C)C)c(O)c(C(C)(C)C)c1 [Dibutylhydroxytoluene]	38	0.24
O=C1O[C@H]([C@@H](O)CO)C(O)=C1O [Vitamin C]	0.7	0.27
CCCCC(CC)CNC(=O)C(O)c1ccc(O)c(O)c1 (stereo not drawn) [Example 1, 2-(3,4-Dihydroxyphenyl)-N-(2-ethylhexyl)-2-hydroxyacetamide]	69	0.12

Source: patent US20030171617A1, “3,4-Dihydroxymandelic acid alkylamides and use thereof” (priority 2000, published 2003)
